Assay results as given in patent US20250304623A1, “PEPTIDES FOR INTRACELLULAR DELIVERY” (UNIVERSIDADE DE SANTIAGO DE COMPOSTELA, priority 2022, published 2025).
Starred links: 1 amine or outer side, 2 acyl side, 3 side chain; linkers in the order of their positions; H or OH if unused. Residues, ends and D or L forms follow the SMILES beside them. Groups on a side chain read outwards from the residue. *: point of attachment. Glutaryl = O=C(CCCC(=O)[*:2])[*:1]; X1 = CCCC/C=C\CCCCCCCC=NN*

Tested on: Hela cells
Experiment: EGFP pDNA transfection, flow cytometry, HeLa
Assay type: cell-based
Conditions: HeLa seeded at 60,000, 120,000 and 240,000 cells/mL
Description: For cytometry-based assays, the delivery of pDNA encoding for the expression of eGFP gene (GFP) in HeLa and A549 cells was performed. Amphiphilic molecule stock solutions in DMSO were diluted with DMEM and freshly mixed with pDNA stock solutions in DMEM prior to transfection experiments, to afford several complexes at different amphiphile concentration (2.5-10 μM) while maintaining a constant final pDNA concentration of 2 ng/μL. The mixture was shaken for 30 min at room temperature before the addition to the cells. The cell medium was aspirated, and cells were washed twice with PBS. Finally, 50 μL of the complex's solution were added to the cells and incubated for 4 h. After the incubation, the medium was replaced by 100 μL of fresh DMEM supplemented with 10% FBS. 72 hours after transfection the DMEM was removed, and cells were cultured for 5 min with 100 μL of trypsin. Then, 100 μL of PBS (supplemented with 2% FBS and 1% EDTA 0.5M) were added. Finally, the GFP fluorescent measurement was performed in a flow cytometer and the percentage of GFP positive (i.e., transfected cells) were quantified. Amphiphile transfection efficiency was compared to control, non-treated cells and all experiments were done in triplicate.
7.3(Leu-His) peptide with D-amino acids was synthesized. This peptide would be more resistant to the degradation by proteases. The inventors studied the delivery of EGFP pDNA using amphiphiles comprising either enantiomer (either 7.3(Leu-His) peptide with D-amino acids or with L-amino acids) and myristoleyl aldehyde to compare their transfecting activity in HeLa cells. Number of EGFP expressing cells was measured by flow cytometry.
Experiments in cultured cells at different confluence levels were performed to check the effect of this parameter on the activity of amphiphile 7.3(Leu-His) M. As described above, transfection experiments are usually performed on cells seeded the day before at a cell concentration of 60,000 cell/mL (100 μL/well). In the current example, transfection experiments with EGFP pDNA are performed in HeLa cells two and four times more concentrated (120,000 and 240,000 cells/mL, respectively). […] However, for this experiment more volume of complex amphiphile/pDNA was needed as the cell concentration was increased (50, 100 and 200 μL of complexes were used for 60,000, 120,000 and 240,000 cells/mL, respectively).
Several structural modifications were performed on the peptide 7.3(Leu-His). The delivery of EGFP pDNA in HeLa cells using amphiphiles comprising these peptides and myristoleyl aldehyde was tested. The modifications consisted of the modification in the order of the amino acids, the replacement of 1 to 3 K* residues for O* residues and the addition of 1 or 2 R residues on the N-terminus. […]

CCCC/C=C\CCCCCCCC=NNC(=O)CCCC(=O)NCCCC[C@H](NC(=O)[C@H](CCCCNC(=O)CCCC(=O)NN=CCCCCCCC/C=C\CCCC)NC(=O)[C@H](CCCNC(=N)N)NC(=O)[C@H](Cc1c[nH]cn1)NC(=O)[C@H](CCCCNC(=O)CCCC(=O)NN=CCCCCCCC/C=C\CCCC)NC(=O)[C@H](CCCNC(=N)N)NC(C)=O)C(=O)N[C@@H](Cc1c[nH]cn1)C(N)=O [7.3(Leu-His) M] (Ac-RK([Glutaryl-X1])HRK([Glutaryl-X1])K([Glutaryl-X1])H-NH2)
EGFP pDNA transfection at different cell confluence: performs equally well at all cell concentrations tested
